Measured values as given in paper PMC6736568, “Discovery of Novel Anti-cryptosporidial Activities From Natural Products by in vitro High-Throughput Phenotypic Screening” (Frontiers in Microbiology, 2019).
Read-outs that look alike come from different tables or passages of the source.

Columns and labels:
Cryptosporidium parvum = assay: qRT-PCR assay of the growth of C. parvum in vitro in HCT-8 host cells (primary and secondary screening, EC50); type: cell-based
[1] = primary screening at 10 uM, from Hs18S ΔCT
[2] = primary screening at 10 uM, treated vs control

Compound	Cytotoxicity (%) (HCT-8 host cells (Hs18S); [1])	Hs18S ΔCT (HCT-8 host cells (Hs18S); [2])	Inhibition (%) (Cryptosporidium parvum; primary screening at 10 uM)	% Inhibition (3.3 uM) (Cryptosporidium parvum; secondary screening at 3.3 uM)	Hs18S ΔCT (HCT-8 host cells (Hs18S))	Cytotoxicity (%) (HCT-8 host cells (Hs18S); 10 µM)	% Inhibition (3.3 uM) (Cryptosporidium parvum)	Inhibition (%) (Cryptosporidium parvum; 10 µM)
CC1(C)C2CC(=O)[C@]3(C)C(CC[C@@]4(C)[C@H](c5ccoc5)OC(=O)C5OC543)[C@@]2(C)[C@@H](O)C[C@H]1O (stereo partly drawn)	4.7%	0.07	69.64%	3%				
C=C1CCC(C2CC(=O)OC2=O)C(=O)CCC2C1CC2(C)C (stereo not drawn)	-6.8%	-0.09	23.70%					
C/C1=C\CC/C(C)=C/CC(C)(C)/C=C/C1	0.1%	0.00	-30.91%					
CC[C@H](C=C[C@@H](C)[C@H]1CC[C@H]2[C@@H]3CCC4=CC(=O)CC[C@]4(C)[C@H]3CC[C@]12C)C(C)C					0.46	27.4	-6	64.69
3-ACETYLGEDUNOL	56.3%	1.19	-40.49%					
CC1=CC(=O)CC(C)(C)C1(O)/C=C/C(C)=C\C(=O)O (racemic) [ABSCISIC ACID (cis,trans; +/-)]	36.3%	0.65	-7.09%					
C=CC[S+]([O-])C[C@H](N)C(=O)O (mixture of isomers) [L(+/-)-ALLIIN]	-12.5%	-0.17	21.98%					
CC1(C)C(=O)[C@@H]2O[C@@H]2[C@@]2(C)C1C[C@@H](O)[C@]1(C)C2CC[C@@]2(C)[C@H](c3ccoc3)OC(=O)C3OC321 (stereo partly drawn) [1,2alpha-EPOXYDEACETOXYDIHYDROGEDUNIN]	-12.9%	-0.18	56.48%					
CC1(C)C2CC(=O)[C@]3(C)C(CC[C@@]4(C)[C@H](c5ccoc5)OC(=O)[C@H]5O[C@]543)[C@@]2(C)C(=O)C[C@H]1O (stereo partly drawn) [1,7-DIDEACETOXY-1,7-DIOXO-3-DEACETYLKHIVORIN]	-6.9%	-0.10	26.84%					
COc1cc2oc3cc(OC)c(OC)c(CC=C(C)C)c3c(=O)c2c(O)c1CC=C(C)C [1-HYDROXY-3,6,7-TRIMETHOXY-2,8-DIPRENYLXANTHONE]	7.7%	0.12	-18.05%					
C[C@@H](N)[C@@H](O)c1ccccc1 [1R,2S-PHENYLPROPYLAMINE]			-7.00%		-0.16	-12.0		
COc1cc(O)c(C(=O)/C=C/c2ccc(OC)c(O)c2)c(OC)c1 [2',3-DIHYDROXY-4,4',6'-TRIMETHOXYCHALCONE]	-22.2%	-0.29	-6.64%					
COc1ccc(/C=C/C(=O)c2ccc(O)cc2O)cc1 [2',4'-DIHYDROXY-4-METHOXYCHALCONE]	-99.8%	-1.00	14.88%					
COc1cc(O)c(C(=O)/C=C/c2ccc(O)c(OC)c2)c(OC)c1 [2',4-DIHYDROXY-3,4',6'-TRIMETHOXYCHALCONE]		0.09						
O=C(/C=C/c1ccc(O)cc1)c1ccccc1O [2',4-DIHYDROXYCHALCONE]	8.3%	0.13	-21.40%					
COc1ccc(/C=C/C(=O)c2cc(O)ccc2O)cc1 [2',5'-DIHYDROXY-4-METHOXYCHALCONE]					-0.46	-37.7		-23.93
COc1ccc(-c2oc3cc(OC)c(OC)c(OC)c3c(=O)c2OC)cc1 [3,4',5,6,7-PENTAMETHOXYFLAVONE]	15.6%	0.24	-9.57%					
COc1ccc(-c2oc3ccccc3c(=O)c2OC)cc1 [3,4'-DIMETHOXYFLAVONE]	22.3%	0.36	-22.87%					
CC1(C)CC2C1CC[C@]1(C)CCC3C(C(=O)O)CC(=O)O[C@@]32C1 (stereo partly drawn) [3-HYDROXY-4-(SUCCIN-2-YL)-CARYOLANE delta-LACTONE]	28.8%	0.49	51.45%					
NCCc1ccc(O)c(O)c1 [3-HYDROXYTYRAMINE]				6%	0.76	41.1		
CC(=O)OC1CCC2(C)C(CC(OC(C)=O)C3(C)C4=CC(=O)OC(c5ccoc5)C4(C)CCC23)C1(C)C (stereo not drawn) [3alpha-ACETOXYDIHYDRODEOXYGEDUNIN]		-0.24		25%				
CC(C(=O)O)[C@H]1CCC2C3CC=C4C[C@@H](O)CC[C@]4(C)C3CC[C@@]21C (stereo partly drawn) [3beta-HYDROXY-23,24-BISNORCHOL-5-ENIC ACID]	-63.2%	-0.71	-20.26%					
CC(=O)O[C@@H]1CC2C(C)(CC[C@H](O)C2(C)C)C2CC[C@]3(C)C(=CC(=O)O[C@H]3c3ccoc3)C21C (stereo partly drawn) [3beta-HYDROXYDEOXODIHYDRODEOXYGEDUNIN]	-19.7%	-0.26	77.26%	-21%				
C[C@@H]1CC[C@@]2(OC1)O[C@H]1C[C@H]3[C@@H]4CC[C@H]5C[C@@H](O)CC[C@]5(C)C4=CC[C@]3(C)[C@H]1[C@@H]2C [3beta-HYDROXYISOALLOSPIROST-9(11)-ENE]	-12.6%	-0.17	6.79%					
COc1cc(O)c(C(C)=O)c(O)c1 [4-O-METHYLPHLORACETOPHENONE]	10.4%	0.16	2.57%					
COc1ccc(-c2cc(=O)c3c(O)cc(OC)c(OC)c3o2)c(OC)c1 [5-HYDROXY-2',4',7,8-TETRAMETHOXYFLAVONE]	13.2%	0.20	89.23%	-83%				
CC(=O)O[C@H]1C[C@@H](OC(C)=O)C(C)(C)C2C[C@@H](O)[C@]3(C)C(CC[C@@]4(C)[C@H](c5ccoc5)OC(=O)[C@H]5O[C@]543)[C@]21C (stereo partly drawn) [7-DEACETYLKHIVORIN]	-46.2%	-0.55						
